Reference: patent publication US10994015B2, “EGFR proteolysis targeting chimeric molecules and associated methods of use” (Arvinas Operations, Inc., priority 2016, dated 2021)

Assays:
[1] = biological target: EGFR L858R/T790M double mutant (H1975) (Homo sapiens (Human), UniProt P00533, L858R/T790M); experiment: EGFR protein degradation assay (Western blot); type: cell-based; conditions: 72 hours, 300 nM to 10 nM
Protocol: EGFR Protein Degradation assay
Cells expressing the appropriate form of EGFR were seeded in 6-well plates (300,000 cells per well) and allowed to adhere to the plate overnight. […] To harvest cells, media was removed and cells were washed once with ice-cold phosphate-buffered saline (PBS) prior to the addition of 400 μl lysis buffer (Cell Signaling Technology) supplemented with a protease inhibitor cocktail (Thermo Scientific). Cells were scraped from the plate and the cell lysate transferred to an Eppendorf tube and then clarified by a single spin at 10 000 rpm for 10 minutes. The protein concentration of each lysate was determined (BCA kit, Thermo Scientific) prior to the addition of loading buffer (Invitrogen) and reducing agent (Invitrogen). 10 μg protein of each lysate was loaded on an SDS/PAGE gel and run at 165V for 2 hours. Following transfer to a PVDF membrane (iBlot2, Thermo Fisher Scientific), the membrane was blocked in Tris-buffered saline containing 0.1% Tween-20 (TBS-T) and supplemented with 5% powdered milk for 1 hour. Membranes were then probed with EGFR and tubulin (loaded control) primary antibodies in TBS-T containing 3% bovine serum albumin (BSA) overnight at 4° C. Membranes were washed thrice with TBS-T before incubation with secondary antibody in TBS-T containing 3% bovine serum albumin (BSA) and incubated for 1 hour at room temperature. Following 3 further washes with TBS, membrane proteins of interest were detected by enzyme-linked chemiluminescence (ECL) using a Chemidoc (Bio-Rad).

EGFR WT = EGFR WT (Homo sapiens (Human), UniProt P00533); experiment: TR-FRET assay for ERBB kinases; type: biochemical; conditions: geometric mean if measured more than once
EGFR WT, sequence (P00533 25-1210): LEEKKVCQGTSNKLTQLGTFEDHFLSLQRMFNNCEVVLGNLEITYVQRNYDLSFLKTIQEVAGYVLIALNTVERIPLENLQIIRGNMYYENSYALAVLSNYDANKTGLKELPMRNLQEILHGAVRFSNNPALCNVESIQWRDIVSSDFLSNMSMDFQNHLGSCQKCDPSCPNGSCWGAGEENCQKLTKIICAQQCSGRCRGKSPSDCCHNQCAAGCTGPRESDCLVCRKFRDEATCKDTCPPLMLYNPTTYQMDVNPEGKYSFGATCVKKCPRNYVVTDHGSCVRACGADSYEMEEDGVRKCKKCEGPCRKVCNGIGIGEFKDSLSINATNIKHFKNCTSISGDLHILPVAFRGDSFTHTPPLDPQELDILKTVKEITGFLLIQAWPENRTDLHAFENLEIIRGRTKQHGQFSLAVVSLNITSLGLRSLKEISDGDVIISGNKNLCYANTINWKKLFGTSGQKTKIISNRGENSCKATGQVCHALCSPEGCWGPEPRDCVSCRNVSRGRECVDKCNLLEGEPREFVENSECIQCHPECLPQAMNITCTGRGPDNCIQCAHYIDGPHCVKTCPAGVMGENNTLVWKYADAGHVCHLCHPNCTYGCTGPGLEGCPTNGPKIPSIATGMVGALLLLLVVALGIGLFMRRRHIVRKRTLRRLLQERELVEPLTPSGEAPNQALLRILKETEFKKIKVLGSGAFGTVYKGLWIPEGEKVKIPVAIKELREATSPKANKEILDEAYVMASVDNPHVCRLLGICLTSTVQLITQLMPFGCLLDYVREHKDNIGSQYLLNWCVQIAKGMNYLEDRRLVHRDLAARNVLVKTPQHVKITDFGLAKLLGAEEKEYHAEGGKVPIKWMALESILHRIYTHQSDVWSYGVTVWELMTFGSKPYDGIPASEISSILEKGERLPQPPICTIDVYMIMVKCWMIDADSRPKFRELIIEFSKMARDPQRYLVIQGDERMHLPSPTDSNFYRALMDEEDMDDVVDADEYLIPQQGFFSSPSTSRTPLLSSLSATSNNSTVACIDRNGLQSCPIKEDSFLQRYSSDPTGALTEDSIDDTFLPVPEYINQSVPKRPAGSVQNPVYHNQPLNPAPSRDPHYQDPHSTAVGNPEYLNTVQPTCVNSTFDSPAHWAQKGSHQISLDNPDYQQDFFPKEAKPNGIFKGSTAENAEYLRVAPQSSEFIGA
Protocol: (§1) TR-FRET Assay for ERBB Kinases
(§2) All compounds and PROTACs were serially diluted in three-fold increments using 100% DMSO, followed by an intermediate 10-fold dilution using Buffer A (50 mM HEPES, pH 7.5, 50 mM NaCl, 10 mM MgCl2, 1 mM DTT, and 0.1% Pluronic F-68). […] Next, 10 uL of protein kinase in Buffer A was added to each well of the assay plate and pre-incubated with compound for 10 minutes. Kinase reactions were then initiated by addition of 5 uL substrate mix containing 3 mM ATP and 30 uM fluorescein-labeled Poly-GluTyr (Thermo Fisher, #PV3610) in Buffer A and allowed to proceed for 10 minutes at room temperature. Reactions were quenched by addition of a 5 uL mixture containing 5 nM LanthaScreen® Tb-pY20 Antibody (Thermo Fisher, #PV3552) and 40 mM EDTA in Buffer A. Assay plates were then read using a Synergy2 (Biotek Instruments, Winooski, Vt.) via excitation thru a 340/20 nm bandpass filter and emission collected thru 490/10 nm (donor) and 520/25 nm (acceptor) bandpass filters.

EGFR L858R/T790M = EGFR L858R/T790M (Homo sapiens (Human), UniProt P00533, L858R/T790M); experiment: TR-FRET assay for ERBB kinases; type: biochemical; conditions: geometric mean if measured more than once
EGFR L858R/T790M, sequence (P00533 25-1210 T790M/L858R): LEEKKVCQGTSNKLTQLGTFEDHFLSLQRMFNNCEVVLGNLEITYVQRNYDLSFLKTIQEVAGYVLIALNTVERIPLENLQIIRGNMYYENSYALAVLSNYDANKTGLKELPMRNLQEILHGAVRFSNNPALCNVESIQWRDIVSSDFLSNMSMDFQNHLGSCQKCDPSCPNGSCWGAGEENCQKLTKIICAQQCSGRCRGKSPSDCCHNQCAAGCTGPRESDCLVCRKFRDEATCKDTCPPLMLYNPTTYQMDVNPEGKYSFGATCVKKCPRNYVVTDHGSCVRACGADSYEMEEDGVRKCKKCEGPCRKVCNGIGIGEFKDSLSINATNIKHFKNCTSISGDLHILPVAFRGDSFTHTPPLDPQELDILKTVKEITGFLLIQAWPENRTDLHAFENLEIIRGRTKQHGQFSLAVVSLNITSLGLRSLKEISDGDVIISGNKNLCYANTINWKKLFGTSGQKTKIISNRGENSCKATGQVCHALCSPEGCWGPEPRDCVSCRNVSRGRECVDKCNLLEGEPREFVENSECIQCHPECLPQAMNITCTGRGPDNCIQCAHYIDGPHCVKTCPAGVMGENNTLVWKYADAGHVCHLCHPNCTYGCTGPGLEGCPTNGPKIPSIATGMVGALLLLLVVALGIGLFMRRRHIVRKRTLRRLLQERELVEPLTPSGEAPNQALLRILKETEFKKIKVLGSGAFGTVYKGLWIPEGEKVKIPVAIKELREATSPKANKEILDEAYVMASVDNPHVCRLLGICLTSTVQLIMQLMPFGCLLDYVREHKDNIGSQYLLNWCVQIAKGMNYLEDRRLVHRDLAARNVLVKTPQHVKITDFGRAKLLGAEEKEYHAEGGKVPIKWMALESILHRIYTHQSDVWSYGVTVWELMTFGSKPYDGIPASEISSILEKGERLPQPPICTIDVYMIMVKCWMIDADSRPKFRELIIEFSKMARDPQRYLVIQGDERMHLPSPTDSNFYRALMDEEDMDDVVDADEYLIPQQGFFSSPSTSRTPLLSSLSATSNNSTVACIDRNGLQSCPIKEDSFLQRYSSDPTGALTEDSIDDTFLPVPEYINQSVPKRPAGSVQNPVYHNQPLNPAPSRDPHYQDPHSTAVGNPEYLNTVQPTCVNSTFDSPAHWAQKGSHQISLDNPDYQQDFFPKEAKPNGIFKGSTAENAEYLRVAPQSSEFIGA
Protocol: as §1, §2

EGFR L858R/T790M/C797S = EGFR L858R/T790M/C797S (Homo sapiens (Human), UniProt P00533, C797S/L858R/T790M); experiment: TR-FRET assay for ERBB kinases; type: biochemical; conditions: geometric mean if measured more than once
EGFR L858R/T790M/C797S, sequence (P00533 25-1210 T790M/C797S/L858R): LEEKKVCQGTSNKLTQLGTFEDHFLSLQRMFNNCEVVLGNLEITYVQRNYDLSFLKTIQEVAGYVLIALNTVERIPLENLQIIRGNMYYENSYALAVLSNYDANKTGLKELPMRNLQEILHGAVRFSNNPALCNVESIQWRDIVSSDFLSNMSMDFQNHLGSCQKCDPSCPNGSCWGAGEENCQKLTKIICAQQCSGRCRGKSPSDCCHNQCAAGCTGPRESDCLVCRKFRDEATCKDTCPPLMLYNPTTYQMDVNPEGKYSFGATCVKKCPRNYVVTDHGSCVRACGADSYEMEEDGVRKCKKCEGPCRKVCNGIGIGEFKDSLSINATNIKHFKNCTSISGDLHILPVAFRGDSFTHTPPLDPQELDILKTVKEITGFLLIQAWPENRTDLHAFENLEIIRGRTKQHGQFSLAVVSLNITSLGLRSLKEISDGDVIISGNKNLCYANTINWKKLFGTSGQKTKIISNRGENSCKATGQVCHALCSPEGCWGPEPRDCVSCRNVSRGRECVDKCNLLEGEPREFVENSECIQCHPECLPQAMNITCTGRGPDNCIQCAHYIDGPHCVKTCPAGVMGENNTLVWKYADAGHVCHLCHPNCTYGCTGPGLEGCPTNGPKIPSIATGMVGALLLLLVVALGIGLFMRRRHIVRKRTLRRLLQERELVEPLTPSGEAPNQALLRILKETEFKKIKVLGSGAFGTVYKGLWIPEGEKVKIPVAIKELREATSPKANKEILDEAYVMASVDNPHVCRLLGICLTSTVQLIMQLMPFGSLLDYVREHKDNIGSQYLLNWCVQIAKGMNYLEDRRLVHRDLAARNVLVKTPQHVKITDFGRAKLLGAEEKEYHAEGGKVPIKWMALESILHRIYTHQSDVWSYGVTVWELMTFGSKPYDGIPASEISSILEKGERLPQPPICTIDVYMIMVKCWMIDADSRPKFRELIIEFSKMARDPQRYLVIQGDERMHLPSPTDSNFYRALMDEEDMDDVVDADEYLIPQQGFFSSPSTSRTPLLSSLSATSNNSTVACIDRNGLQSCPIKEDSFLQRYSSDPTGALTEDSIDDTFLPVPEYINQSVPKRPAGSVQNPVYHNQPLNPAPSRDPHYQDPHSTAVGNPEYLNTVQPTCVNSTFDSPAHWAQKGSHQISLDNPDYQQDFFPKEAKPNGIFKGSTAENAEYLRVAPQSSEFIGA
Protocol: as §1, §2

EGFR Exon20NPG = EGFR Exon20NPG (Homo sapiens (Human), UniProt P00533, INS770NPG); experiment: TR-FRET assay for ERBB kinases; type: biochemical; conditions: geometric mean if measured more than once
Protocol: as §1
All compounds and PROTACs were serially diluted in three-fold increments using 100% DMSO, followed by an intermediate 10-fold dilution using Buffer A (50 mM HEPES, pH 7.5, 50 mM NaCl, 10 mM MgCl2, 1 mM DTT, and 0.1% Pluronic F-68). Two microliters of serially diluted compound or PROTAC were then transferred to black 384-well Proxiplates (PerkinElmer, #6008260) using an Integra Viaflo96. Next, 10 uL of protein kinase in Buffer A was added to each well of the assay plate and pre-incubated with compound for 10 minutes. Kinase reactions were then initiated by addition of 5 uL substrate mix containing 3 mM ATP and 30 uM fluorescein-labeled Poly-GluTyr (Thermo Fisher, #PV3610) in Buffer A and allowed to proceed for 10 minutes at room temperature. Reactions were quenched by addition of a 5 uL mixture containing 5 nM LanthaScreen® Tb-pY20 Antibody (Thermo Fisher, #PV3552) and 40 mM EDTA in Buffer A. Assay plates were then read using a Synergy2 (Biotek Instruments, Winooski, Vt.) via excitation thru a 340/20 nm bandpass filter and emission collected thru 490/10 nm (donor) and 520/25 nm (acceptor) bandpass filters.

EGFR L858R/T790M double mutant (H1975), sequence (P00533 25-1210 T790M/L858R): as the sequence (P00533 25-1210 T790M/L858R) above

Cc1ncsc1-c1ccc([C@H](C)NC(=O)[C@H]2C[C@H](O)CN2C(=O)[C@@H](NC(=O)COCCN2CCN(CCCC#Cc3cccc4c3C(=O)N(C(C(=O)Nc3nccs3)c3cc(F)ccc3O)C4)CC2)C(C)(C)C)cc1 (some centres unmarked) [compound 91] was tested, and the “EGFR protein remaining, EGFR L858R/T790M double mutant” value (shortened to “EGFR protein remaining”) [1] was “C (>80% EGFR protein remaining after 72 hours of incubation with the test compound at a concentration of 300 nM)”, the IC50 (EGFR WT) was 4.3 µM and the IC50 (EGFR L858R/T790M) was 4.7 µM. It also gave an IC50 (EGFR L858R/T790M/C797S) of 0.66 µM and an IC50 (EGFR Exon20NPG) of 8.3 µM.

For Cc1ncsc1-c1ccc([C@H](C)NC(=O)[C@H]2C[C@H](O)CN2C(=O)[C@@H](NC(=O)COCCOCCOc2ccc(-c3nccc(Nc4cc5c(cn4)nc(C)n5C(C)C)n3)cc2)C(C)(C)C)cc1 [Example 276, (2R,4S)-4-hydroxy-1-((S)-2-(2-(2-(2-(4-(4-((1-isopropyl-2-methyl-1H-imidazo[4,5-c]pyridin-6-yl)amino)pyrimidin-2-yl)phenoxy)ethoxy)ethoxy)acetamido)-3,3-dimethylbutanoyl)-N—((S)-1-(4-(4-methylthiazol-5-yl)phenyl)ethyl)pyrrolidine-2-carboxamide], the “EGFR protein remaining” value [1] was “C (>80% EGFR protein remaining after 72 hours of incubation with the test compound at a concentration of 300 nM)”, the IC50 (EGFR WT) was 20 µM and the IC50 (EGFR L858R/T790M) was 23 µM. For the same compound, the IC50 (EGFR L858R/T790M/C797S) was 29 µM and the IC50 (EGFR Exon20NPG) was greater than 30 µM.

With COC1CCN(c2nccc(Nc3cc4c(cn3)nc(COCCCN3CCN(CCCOCC(=O)N[C@H](C(=O)N5C[C@H](O)C[C@H]5C(=O)N[C@@H](C)c5ccc(-c6scnc6C)cc5)C(C)(C)C)CC3)n4C(C)C)n2)CC1 [Example 85, (2S,4R)-4-hydroxy-1-((S)-2-(2-(3-(4-(3-((1-isopropyl-6-((2-(4-methoxypiperidin-1-yl)pyrimidin-4-yl)amino)-1H-imidazo[4,5-c]pyridin-2-yl)methoxy)propyl)piperazin-1-yl)propoxy)acetamido)-3,3-dimethylbutanoyl)-N—((S)-1-(4-(4-methylthiazol-5-yl)phenyl)ethyl)pyrrolidine-2-carboxamide] the “EGFR protein remaining” value [1] was “C (>80% EGFR protein remaining after 72 hours of incubation with the test compound at a concentration of 300 nM)”, the IC50 (EGFR WT) was greater than 30 µM and the IC50 (EGFR L858R/T790M) was 16 µM. The IC50 (EGFR L858R/T790M/C797S) was 3.9 µM and the IC50 (EGFR Exon20NPG) was greater than 30 µM.

Work on COC1(CCN2CCN(CCCOCCCOCC(=O)N[C@H](C(=O)N3C[C@H](O)C[C@H]3C(=O)N[C@@H](C)c3ccc(-c4scnc4C)cc3)C(C)(C)C)CC2)CCN(c2nccc(Nc3cc4c(cn3)nc(C)n4C(C)C)n2)CC1 [Example 292, (2S,4R)-4-hydroxy-1-((S)-2-(2-(3-(3-(4-(2-(1-(4-((1-isopropyl-2-methyl-1H-imidazo[4,5-c]pyridin-6-yl)amino)pyrimidin-2-yl)-4-methoxypiperidin-4-yl)ethyl)piperazin-1-yl)propoxy)propoxy)acetamido)-3,3-dimethylbutanoyl)-N—((S)-1-(4-(4-methylthiazol-5-yl)phenyl)ethyl)pyrrolidine-2-carboxamide] yielded an IC50 (EGFR WT) of 39 µM, an IC50 (EGFR L858R/T790M) of 19 µM and an IC50 (EGFR L858R/T790M/C797S) of 11 µM.

In the case of Cc1ncsc1-c1ccc(CNC(=O)[C@@H]2C[C@@H](O)CN2C(=O)C(C(C)C)N2Cc3ccccc3C2=O)c(OCCOCCOCCOCCOc2ccc(-c3nccc(Nc4cc5c(cn4)nc(C)n5C(C)C)n3)cc2)c1 (some centres unmarked) [compound 281], the IC50 (EGFR WT) is reported as 12 µM, the IC50 (EGFR L858R/T790M) is reported as greater than 30 µM and the IC50 (EGFR L858R/T790M/C797S) is reported as 15 µM. It also gave an IC50 (EGFR Exon20NPG) greater than 30 µM.

Cc1ncsc1-c1ccc([C@H](C)NC(=O)[C@H]2C[C@H](O)CN2C(=O)[C@@H](NC(=O)COCCOCCOCCOCCOc2ccc(-c3nccc(Nc4cc5c(cn4)nc(C)n5C(C)C)n3)cc2)C(C)(C)C)cc1 [compound 279] showed an IC50 (EGFR WT) of 16 µM, an IC50 (EGFR L858R/T790M) of 29 µM and an IC50 (EGFR L858R/T790M/C797S) greater than 30 µM. It also gave an IC50 (EGFR Exon20NPG) greater than 30 µM.

For O=C1CCC(N2C(=O)c3cccc(NCCOCCOCC#Cc4cccc5c4C(=O)N([C@@H](C(=O)Nc4nccs4)c4cc(F)ccc4O)C5)c3C2=O)C(=O)N1 (some centres unmarked) [compound 264], the “EGFR protein remaining” value [1] was “C (>80% EGFR protein remaining after 72 hours of incubation with the test compound at a concentration of 300 nM)”, the IC50 (EGFR WT) was 4.2 µM and the IC50 (EGFR L858R/T790M) was greater than 30 µM. The IC50 (EGFR L858R/T790M/C797S) was 1.1 µM and the IC50 (EGFR Exon20NPG) was 24 µM.

For COC1CCN(c2nccc(Nc3cc4c(cn3)nc(COCCN3CCN(c5ccc6c(c5)C(=O)N(C5CCC(=O)NC5=O)C6=O)CC3)n4C(C)(C)C)n2)CC1 (centres unmarked) [compound 287], the IC50 (EGFR WT) was 6.7 µM, the IC50 (EGFR L858R/T790M) was 0.074 µM and the IC50 (EGFR L858R/T790M/C797S) was 0.016 µM.

For Cc1ncsc1-c1ccc([C@H](C)NC(=O)[C@H]2C[C@H](O)CN2C(=O)[C@@H](NC(=O)COCCCOCCCN2CCOC3(CCN(c4nccc(Nc5cc6c(cn5)nc(C)n6C(C)C)n4)CC3)C2)C(C)(C)C)cc1 [compound 285], the IC50 (EGFR WT) was 26 µM, the IC50 (EGFR L858R/T790M) was 35 µM and the IC50 (EGFR L858R/T790M/C797S) was 17 µM.

For COC1CCN(c2nccc(Nc3cc4c(cn3)nc(COCCN3CCN(CCOCC(=O)N[C@H](C(=O)N5C[C@H](O)C[C@H]5C(=O)N[C@@H](C)c5ccc(-c6scnc6C)cc5)C(C)(C)C)CC3)n4C(C)C)n2)CC1 [compound 86], the “EGFR protein remaining” value [1] was “C (>80% EGFR protein remaining after 72 hours of incubation with the test compound at a concentration of 300 nM)”, the IC50 (EGFR WT) was greater than 30 µM and the IC50 (EGFR L858R/T790M) was 12 µM. It also gave an IC50 (EGFR L858R/T790M/C797S) of 2.4 µM and an IC50 (EGFR Exon20NPG) of 24 µM.

Compound Cc1ncsc1-c1ccc([C@H](C)NC(=O)[C@H]2C[C@H](O)CN2C(=O)[C@@H](NC(=O)COCCOCCOCCOc2ccc(-c3nccc(Nc4cc5c(cn4)nc(C)n5C(C)C)n3)cc2)C(C)(C)C)cc1 [compound 278] has an IC50 (EGFR WT) of 30 µM, an IC50 (EGFR L858R/T790M) greater than 30 µM and an IC50 (EGFR L858R/T790M/C797S) greater than 30 µM. It also gave an IC50 (EGFR Exon20NPG) greater than 30 µM.

For O=C1CCC(N2C(=O)c3ccc(N4CCN(CC5CCN(CC#Cc6cccc7c6C(=O)N(C(C(=O)Nc6nccs6)c6cc(F)ccc6O)C7)CC5)CC4)cc3C2=O)C(=O)N1 (centres unmarked) [compound 293], the IC50 (EGFR WT) was 1.7 µM, the IC50 (EGFR L858R/T790M) was 4.2 µM and the IC50 (EGFR L858R/T790M/C797S) was 0.64 µM.

In the case of Cc1ncsc1-c1ccc([C@H](C)NC(=O)[C@@H]2C[C@@H](O)CN2C(=O)[C@@H](NC(=O)COCCCOCCCN2CCC3(CC2)CCN(c2nccc(Nc4cc5c(cn4)nc(C)n5C(C)C)n2)CC3)C(C)(C)C)cc1 [Example 282, (2S,4R)-4-hydroxy-1-((S)-2-(2-(3-(3-(9-(4-((1-isopropyl-2-methyl-1H-imidazo[4,5-c]pyridin-6-yl)amino)pyrimidin-2-yl)-3,9-diazaspiro[5.5]undecan-3-yl)propoxy)propoxy)acetamido)-3,3-dimethylbutanoyl)-N—((S)-1-(4-(4-methylthiazol-5-yl)phenyl)ethyl)pyrrolidine-2-carboxamide], the IC50 (EGFR WT) is reported as 12 µM, the IC50 (EGFR L858R/T790M) is reported as greater than 30 µM and the IC50 (EGFR L858R/T790M/C797S) is reported as 23 µM. For the same compound, the IC50 (EGFR Exon20NPG) was greater than 30 µM.

With COC1CCN(c2nccc(Nc3cc4[nH]c(COCCN5CCN(c6ccc7c(c6)C(=O)N(C6CCC(=O)NC6=O)C7=O)CC5)nc4cn3)n2)CC1 (centres unmarked) [compound 288] the IC50 (EGFR WT) was 5.9 µM, the IC50 (EGFR L858R/T790M) was 6.9 µM and the IC50 (EGFR L858R/T790M/C797S) was 2 µM.

Compound COC1CCN(c2nccc(Nc3cc4c(cn3)nc(-c3ccc(CN5CCN(CCOc6ccc7c(c6)C(=O)N(C6CCC(=O)NC6=O)C7=O)CC5)cc3)n4C(C)C)n2)CC1 (centres unmarked) [Example 286, 2-(2,6-dioxopiperidin-3-yl)-5-(2-(4-(4-(1-isopropyl-6-((2-(4-methoxypiperidin-1-yl)pyrimidin-4-yl)amino)-1H-imidazo[4,5-c]pyridin-2-yl)benzyl)piperazin-1-yl)ethoxy)isoindoline-1,3-dione] has an IC50 (EGFR WT) of 7.3 µM, an IC50 (EGFR L858R/T790M) of 0.48 µM and an IC50 (EGFR L858R/T790M/C797S) of 0.17 µM.
